Measured values from US11980616B2, “Treating liver disease by selectively eliminating senescent cells” (Buck Institute for Research on Aging, priority 2014, dated 2024).

Experiments:
[1] = system: doxorubicin-treated (Doxo) senescent foreskin fibroblasts (HCA2); assay: Cell count survival assay, doxorubicin-induced senescent HCA2; type: cell-based; conditions: Sen(Doxo) HCA2; 9 days
Method: (§1) Foreskin fibroblast cell lines HCA2 and BJ, lung fibroblast cell line IMR90, and mouse embryonic fibroblasts were seeded in six-well plates and induced to senesce with 10 Gy of ionizing radiation (IR) or a 24 hr treatment with doxorubicin (Doxo). Senescent phenotype was allowed to develop for at least 7 days, at which point a cell count was made to determine the baseline number of cells. Nutlin-3a treatment was then initiated for a period of at least 9 days. Media alone or media with drug as appropriate was refreshed at least every three days. At the end of the assay time period, cells are counted. Each condition was seeded in three plate wells and counted independently. Initial cell count serves as a control to determine the induction of senescence, as compared to the last day count without nutlin treatment. Initial non-senescent cell count serves as a proxy to determine Nutlin-3a toxicity.
Foreskin fibroblasts (HCA2) and aortic endothelial cells (Endo Aort) were treated with doxorubicin (250 nM) for one day (24 hours) to induce senescence (see FIG. 1). Eight days following doxorubicin treatment, Nutlin-3a treatment was initiated. HCA2 cells were exposed to Nutlin-3a for 9 days, and aortic endothelial cells were exposed to Nutlin-3a for 11 days. […] Percent survival was calculated as [cell count on the last day of Nutlin-3a treatment/initial cell count on first day of Nutlin-3a treatment].

[2] = system: non-senescent lung fibroblasts (Non Sen IMR90); assay: Cell count toxicity assay, non-senescent IMR90; type: cell-based, human; conditions: 0, 2.5, 10 μM, 9 days
Method: as §1
(§2) Non-senescent foreskin fibroblasts (HCA2), lung fibroblasts (IMR90), and mouse embryonic fibroblasts (MEF) were treated with varying concentrations (0, 2.5 μM, and 10 μM) of Nutlin-3a for a period of 9 days to assess Nutlin-3a toxicity. Cell counts were taken at the start (NS start) and end of Nutlin-3a treatment. The difference between counts of cells not treated with Nutlin-3a on day 9 (NS 0) and cell counts determined at day zero (NS start) reflects the cell growth over the indicated time period. […]

[3] = system: IL-6 positive senescent IMR90 cells; assay: IL-6 immunofluorescence in irradiated senescent IMR90 cells; type: cell-based, human
Method: Primary human fibroblast (IMR90) cells were induced to senesce by applying 10 Gy of irradiation. Seven days after irradiation (Day 0), cells were treated with 10 μM Nutlin-3a or vehicle (DMSO) for nine days (Day 9). The drug or vehicle was refreshed every three days. Drug/vehicle was removed at Day 9 and the cells were cultured for an additional three days (Day 12). Cells were then fixed with 4% paraformaldehyde and stained by immunofluorescence with a specific anti-IL-6 antibody (R&D, AF-206-NA). Cells were counterstained with DAPI for nuclear visualization. The percent IL-6 positive cells is illustrated in FIG. 12A. IL-6 positive cells were determined in an unbiased manner using CellProfiler software. Three different cultures were assessed. Non-senescent cells had no detectable cells IL-6 production while senescent cells were about 8% positive at day 9 after vehicle (DMSO) treatment (16 days after irradiation). […] At day 12, 3 days after Nutlin-3a was removed and 19 days after irradiation, IL-6 positive cells in the vehicle control were about 9% and Nutlin3a treated cells were less than 1% positive for IL-6.

[4] = system: non-senescent mouse embryonic fibroblasts (Non Sen MEFs); assay: Cell count toxicity assay, non-senescent MEF; type: cell-based; conditions: 0, 2.5, 10 μM, 9 days
Method: as §1, §2

[5] = system: LDLR-/-/3MR double transgenic mice fed a HFD; assay: Atherosclerosis model, LDLR-/-/3MR double transgenic mice fed a HFD; type: in vivo, mouse; conditions: vs LDLR-/- HFD controls
Method: The study illustrated in FIG. 43B assessed the extent to which […] based clearance of senescent cells from LDLR^−/−/3MR double transgenic mice improves pre-existing atherogenic disease. LDLR^−/−/3MR double transgenic mice (10 weeks) and LDLR^−/− single transgenic mice (10 weeks) are fed a high fat diet beginning at Week 0 until Week 12. Gancyclovir is administered to both groups of mice (25 mg/kg intraperitoneally) from weeks 12-13 and weeks 14-15. At week 16, the level of plaque and the number of senescent cells in the plaques are determined.

[6] = system: p16-3MR mice fed a high fat diet; assay: Glucose tolerance and insulin sensitivity in p16-3MR mice fed a high fat diet; type: in vivo, mouse
Method: Groups of p16-3MR mice (n=9) were fed a high fat diet for four months mice or a regular chow diet. Animals were then treated with ganciclovir (3 rounds of 25 mg/kg ganciclovir administered daily for five consecutive days) or vehicle. A glucose bolus was given at time zero, and blood glucose was monitored at 20, 30, 60, and 120 minutes after delivering glucose to determine glucose disposal (see FIG. 69A). […] Insulin sensitivity was also determined (Insulin Tolerance Testing (ITT)). […] Changes in weight, body composition, and food intake were also monitored.

[7] = system: p16-3MR mice fed a high fat diet; assay: High fat feeding-induced senescence in p16-3MR mice, SA-β-Gal staining of adipose tissue; type: in vivo, mouse; conditions: 25 mg/kg daily for five days; p=<0.004
Method: Groups of p16-3MR mice (n=6) were fed a high fat diet (60% fat) for four months mice or a regular chow diet. The presence of senescence cells was determined by measuring luminescence p16 positive cells). […] Animals were then treated with ganciclovir or vehicle to determine if removal of senescent cells reduced the presence of senescent cells in adipose tissue. Groups of animals were treated with ganciclovir or vehicle. Ganciclovir (25 mg/kg) was administered daily for five consecutive days. The presence of senescent cells in perirenal, epididymal, or subcutaneous inguinal adipose tissue was detected by SA-β-Gal staining. Data were analyzed by ANOVA.

[8] = 3 rounds of 25 mg/kg daily for five days, vs vehicle

COc1ccc(C2=N[C@@H](c3ccc(Cl)cc3)[C@@H](c3ccc(Cl)cc3)N2C(=O)N2CCNC(=O)C2)c(OC(C)C)c1 [Nutlin-3a]
Percent survival [1]: sensitive
Proliferation (percent growth) [2]: reduces proliferation
Toxicity (cell number vs starting level) [2]: non-toxic
Percent IL-6 positive cells ([3]; 10 μM, Day 9, vehicle about 8%): below 5%
Percent IL-6 positive cells ([3]; Day 12, 3 days after drug removal, vehicle about 9%): less than 1%
Proliferation (percent growth) [4]: reduces proliferation
Toxicity (cell number vs starting level) [4]: non-toxic

Nc1nc(O)c2ncn(COC(CO)CO)c2n1 [ganciclovir]
% of the aorta covered with plaque ([5]; 25 mg/kg i.p. weeks 12-13 and 14-15): reduces the % of the aorta covered with plaque
Plaque cross-sectional area ([5]; 25 mg/kg i.p.): reduced the plaque cross-sectional area
Insulin Tolerance Testing: blood glucose ([6]; 0, 14, 30, 60, and 120 minutes): greater decrease in blood glucose
Glucose tolerance test AUC [6, 8]: significantly lower
Hemoglobin A1c [6, 8]: lower
Presence of senescent cells in epididymal fat (SA-β-Gal staining) [7]: significant reduction
